The source made the active and inactive calls. No cut-off for these calls is given here.

The test system of data set [1] is HaCaT. Kind of data set: Cytoprotective activity in human HaCaT cells assessed as inhibition of H2O2-induced decrease in LDH release at 200 uM. Format: functional, cell-based. (In general: LDH leaks from cells whose membrane has failed.)
In data set [2] the test system is HaCaT. Kind of data set: Cytoprotective activity in human HaCaT cells assessed as inhibition of H2O2-induced decrease in cell viability at 50 to 200 uM after 1 hr by CCK8 assay. It is filed as functional, cell-based. For orientation: Tetrazolium assays rely on reduction of a dye to a coloured formazan, in cell work by metabolically active cells.
Data set [3] relates to HaCaT. In words: Cytoprotective in human HaCaT cells assessed as inhibition of H2O2-induced decrease in mitochondrial membrane potential at 200 uM preincubated for 1 hr followed by H2O2 addition by Rhodamine 123 staining based fluorescence assay. Format: functional, cell-based.
For data set [4], the system named is HaCaT. In words: Toxicity in human HaCaT cells assessed as H2O2-induced decrease in cell viability at 400 uM after 1 hr by CCK8 assay. Format: cell-based.
Data set [5] has as its system HaCaT. In words: Effect on mitochondrial membrane potential in human HaCaT cells after 1 hr by Rhodamine 123 staining based fluorescence assay. It is filed as ADME, cell-based.
The nature of data set [6]: Induction of Hydrogen sulfide production at pH 5 to 8 measured upto 15 hrs by UV-vis method based zinc-sulfide precipitation based methylene blue Method. It is filed as physicochemical. The following applies: pH 5, 15 h.

For the sequence “TIOMOLIBDATE DIAMMONIUM [listing 1 of 2 here]”, the outcome in data set [1], in data set [2] and in data set [3] was Active.

As to “TIOMOLIBDATE DIAMMONIUM [listing 2 of 2 here]”, the values for the Activity entry in data set [4], in data set [5] and in data set [6] were “Toxic”, “Non-toxic” and “Active”, respectively.

For the origin of these results see ChEMBL document CHEMBL3774314, “Ammonium tetrathiomolybdate as a water-soluble and slow-release hydrogen sulfide donor” (Bioorg Med Chem Lett, 2016).
